The assay deals with Src kinase (Homo sapiens, UniProt P12931). The assay is described as follows: ADP-Glo kinase assay, […] Src, […] ATP, peptide substrate. On the technique in general: ADP-Glo turns the ADP formed in a reaction into a luminescent signal.
Chain of Src kinase (P12931 2-536): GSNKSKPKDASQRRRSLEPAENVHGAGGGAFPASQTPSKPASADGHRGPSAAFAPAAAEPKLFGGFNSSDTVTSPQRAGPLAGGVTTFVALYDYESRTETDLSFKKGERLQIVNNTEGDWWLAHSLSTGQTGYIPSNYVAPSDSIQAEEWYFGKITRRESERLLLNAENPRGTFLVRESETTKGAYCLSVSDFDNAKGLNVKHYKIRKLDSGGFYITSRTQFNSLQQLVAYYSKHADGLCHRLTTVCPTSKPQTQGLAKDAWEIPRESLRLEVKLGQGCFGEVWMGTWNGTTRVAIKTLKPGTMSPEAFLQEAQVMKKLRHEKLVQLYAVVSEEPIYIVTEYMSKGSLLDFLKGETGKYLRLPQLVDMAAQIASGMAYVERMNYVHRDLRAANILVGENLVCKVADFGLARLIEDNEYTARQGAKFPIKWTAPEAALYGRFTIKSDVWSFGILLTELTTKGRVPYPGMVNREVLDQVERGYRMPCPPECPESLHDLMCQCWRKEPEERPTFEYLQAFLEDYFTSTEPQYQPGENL

The IC50 is the concentration needed to halve the response being measured. Low values mean greater potency, high ones weaker potency. `Cc1nc(Nc2ncc(C(=O)Nc3cc(NC(=O)c4cccc(C(F)(F)F)c4)ccc3C)s2)cc(N2CCN(CCO)CC2)n1` [UM-164] yielded an IC50 of 0.323 µM. That is a sub-micromolar value.

These data come from article PMC13397736, “LEP-AD: language embedding of proteins and attention to drugs predicts drug-target interactions” (Journal of Cheminformatics, 2026).
